Data: US10308682B2, “Inhibition of tumor growth with aggregates of small molecules” (BRANDEIS UNIVERSITY, priority 2013, dated 2019)

Assays:
tau = experiment: Hydrogel based protein pull-down assay, tau; assay type: binding; settings: protein mass-spectrometry
Protocol: One reason is that PC12 cells have slower metabolism and growth (e.g., doubling every 72 h) than that of cancer cells. […] Another reason is that, PC12 cells, as a neuronal cell, have abundant amount of microtubule-stabilizing proteins (e.g., tau and MAP2) to promote tubulin polymerization and stabilize microtubules. […] Therefore, the existence of microtubule-stabilizing proteins in neurons can counter the effect of the molecular aggregates of 1, which is consistent with that PC12 cells, incubated with 1 at 400 μM (FIG. 5p), still display intact microtubule network. These two effects together, protect the PC12 cells from cytotoxicity induced by molecular aggregates of 1 (FIG. 7).
4×10^7 of HeLa cells were scrapped from petri dish and washed with PBS buffer for 3 times then centrifuged at 300 g for 5 minutes. The collected cell pellet was mixed with phosphate buffer (100 mM) then snap freeze and thaw for 3 cycles to lyse the cells. The cell lysate was clarified by centrifugation at 12,000 g for 20 min at 4° C. to remove the whole cells, nuclei and large mitochondria. 50 μL of the supernatant lysate was gently mixed with 30 μL hydrogel of 1 (10 mM in PBS buffer, pH 7.6) on rotator at RT for 30 min. The hydrogel was collected by centrifugation (12,000 g, 5 min, 4° C.) and the supernatant was collected and placed on ice before analysis. […]

HeLa cells [1] = experiment: Intracellular concentration of 1 in HeLa cells by LC-MS; assay type: cell-based; settings: incubated with 300 μM and 400 μM for 24 h
Protocol: FIG. 3 depicts the response of cancer cells toward molecular aggregates of 1. (a) Intracellular concentration of 1 in HeLa cells treated with 1 for 12 h at different temperatures measure by LC-MS (left bar=37° C.; right bar=4° C.). (b) Confocal images of FITC annexin V and PI stained HeLa cells without incubation with 1 (live cells), HeLa cells treated with 400 μM of 1 for 36 h, and necrotic HeLa cells (induced by DMSO). Scale bar=20 μm. (c) Fluorescence emission of 7-AAD and 1 in cell lysate (15,000 cell/mL) at λex=488 nm. (d) Cell cycle analysis, by flow cytometry, of HeLa cells treated with 0, 300 or 400 μM of 1 for 24 h. Depletion of G2/M phase occurs in cells treated with 400 μM of 1. […] The gaps were created on the HeLa cells of 100% confluence in 24 well plates, and measured after incubation for 18 h.
The cytotoxicity of the molecular aggregates of 1 toward the cancer cells in cell assays and on animal model warrants further examination on the mechanism of the cell death. […] We measured the intracellular concentrations of 1 in the lysate of the HeLa cells incubated with 300 μM and 400 μM of 1 for 24 h (FIG. 3a) at 37° C. or 4° C. Based on the amount of 1, measured by liquid chromatography-mass spectroscopy (LC-MS) and the estimated total cell volume, the concentration of 1 inside the cells is about 150% of the concentration of 1 used for the incubation at 37° C. […]

HeLa cells [2] = experiment: Flow cytometry cell-cycle analysis of HeLa cells; assay type: cell-based; settings: 400 μM, 24 h
Protocol: FIG. 3 depicts the response of cancer cells toward molecular aggregates of 1. (a) Intracellular concentration of 1 in HeLa cells treated with 1 for 12 h at different temperatures measure by LC-MS (left bar=37° C.; right bar=4° C.). (b) Confocal images of FITC annexin V and PI stained HeLa cells without incubation with 1 (live cells), HeLa cells treated with 400 μM of 1 for 36 h, and necrotic HeLa cells (induced by DMSO). Scale bar=20 μm. (c) Fluorescence emission of 7-AAD and 1 in cell lysate (15,000 cell/mL) at λex=488 nm. (d) Cell cycle analysis, by flow cytometry, of HeLa cells treated with 0, 300 or 400 μM of 1 for 24 h. Depletion of G2/M phase occurs in cells treated with 400 μM of 1. (e) Cell migration assay of HeLa cells treated with 0, 300, 400 or 500 μM of 1. The gaps were created on the HeLa cells of 100% confluence in 24 well plates, and measured after incubation for 18 h.
Because apoptosis associates with cell cycle, we examined the effect of the aggregates of 1 on the cell cycle. […] The cell-cycle distribution of the HeLa cells incubated with 400 μM of 1 indicates significant decrease of the peaks of S phase and G2/M phase. […] The slight right shift of the whole spectra results from the overlapping of emission of 7-AAD and 1 (FIG. 3c). But such shift barely hampers the distribution of cell-cycle of the spectra. The aggregates of 1 also delay the migration of the HeLa cells.

HeLa cells [3] = experiment: Cell viability assay (MTT), HeLa cells; assay type: cell-based
Protocol: Cells in exponential growth phase were seeded in a 96 well plate at a concentration of 50,000 cell/well. The cells were allowed to attach to the wells for 24 h at 37° C., 5% CO2, then the culture medium was removed and 100 μL new culture medium containing 1 at gradient concentrations was placed into each well. After culturing at 37° C., 5% CO2 for desired time, each well was added by 10 μL of 5 mg/mL MTT 43-(4,5-Dimethylthiazol-2-yl)-2,5-diphenyltetrazolium bromide), and the plated cells were incubate at dark for 4 h. 100 μL 10% SDS with 0.01 M HCl was added to each well to stop the reduction reaction and to dissolve the purple. After incubation of the cells at 37° C. for overnight, the viability is measured. Data represent the mean±standard deviation of three independent experiments.
The estimation of the threshold concentration of aggregation (320-340 μM) for 1 allows us to examine the cytotoxicity of 1 in monomer and molecular aggregate forms. We first tested the cytotoxicity of 1 towards HeLa cells, the most widely studied cancer cell line, below and above the threshold concentration.

actin = target: T1, actin (Homo sapiens, UniProt P60709); experiment: Hydrogel based protein pull-down assay, actin; assay type: binding; settings: hydrogel 10 mM, HeLa cell lysate, Western blot
T1 construct: snap freeze and thaw for 3 cycles to lyse the cells; endogenous in cells; host or cells: HeLa cell lysate
Protocol: 4×10^7 of HeLa cells were scrapped from petri dish and washed with PBS buffer for 3 times then centrifuged at 300 g for 5 minutes. The collected cell pellet was mixed with phosphate buffer (100 mM) then snap freeze and thaw for 3 cycles to lyse the cells. The cell lysate was clarified by centrifugation at 12,000 g for 20 min at 4° C. to remove the whole cells, nuclei and large mitochondria. 50 μL of the supernatant lysate was gently mixed with 30 μL hydrogel of 1 (10 mM in PBS buffer, pH 7.6) on rotator at RT for 30 min. The hydrogel was collected by centrifugation (12,000 g, 5 min, 4° C.) and the supernatant was collected and placed on ice before analysis. The hydrogel was washed three times by gently mixing with 50 μL of the washing buffer (50 mM phosphate buffer pH 7.6 supplemented with 150 mM NaCl) on rotator at RT for 10 min followed by separation on centrifuge (12,000 g, 5 min, 4° C.). Supernatants were collected and placed on ice before analysis. Finally, the remaining hydrogel was dissolved using 1:1 washing buffer and 5× Laemeli buffer. All other samples were mixed with 5× Laemeli buffer (final concentration 2×) before SDS-PAGE.
That 1 enters the cells to affect cell cycle, cell migration, and eventually cell viability implies the interactions between the aggregates of 1 and certain intracellular proteins. […]

O=C(Cc1ccc2ccccc2c1)N[C@@H](Cc1ccccc1)C(=O)N[C@@H](Cc1ccccc1)C(=O)O [Compound 1]
interaction of aggregates of 1 with tau (tau): little or no interaction
concentration of 1 inside the cells (HeLa cells [1]; 4° C.): about 30 % of the incubating concentration
concentration of 1 inside the cells (HeLa cells [1]; 37° C.): about 150 % of the concentration of 1 used for the incubation
cell-cycle distribution (HeLa cells [2]): arrest the HeLa cells at the G1/G0 phase
concentration at which molecular aggregates exhibit cytotoxicity (HeLa cells [3]): 400 µM
concentration at which molecular aggregates exhibit cytotoxicity, weight/volume (HeLa cells [3]; 400 μM converted): about 0.19 mg/mL
cytotoxicity towards HeLa cells (HeLa cells [3]; 200 and 300 μM, below threshold concentration): little cytotoxicity
cell death of HeLa cells, extended assay (HeLa cells [3]; 200 or 300 μM, 72 h): hardly results in significant cell death
time dependent viability of HeLa cells (HeLa cells [3]; 400 and 500 μM): little loss of cell viability until after 38 h
cytotoxicity towards HeLa cells after removal of aggregates (HeLa cells [3]; 400 and 500 μM, medium passed through 0.22 μm PVDF filter): largely alleviates the cytotoxicity
viability of the HeLa cells (HeLa cells [3]; 400 and 500 μM, within 48 h, as prepared medium): less than 20%
binding of actin to the aggregates of 1 (actin): low binding affinity
